2 compounds from patent publication US8853151B2, “Pro-drug complexes and related methods of use” (The Regents of the University of Michigan, priority 2009, dated 2014) can be followed below.

A short description of series [1]: Solubility of SN-38 pro-drug complex in comparison with SN-38. Type of series: physicochemical. The text has this: The solubility of SN-38 pro-drug complex
[drawing 23] in comparison with SN-38 was investigated.

Series [2] has as its system cervical carcinoma cell line KB. Briefly: Effect on cell growth with or without recombinant human DT-Diaphorase (DTD) in the growth medium, KB cells. Type of series: cell-based. The text has this:
(§1) The redox-coupled release of free SN38 from the SN-38 pro-drug complex
(§2) [drawing 24] using the enzyme DT-Diaphorase (DTD) was investigated. DTD is a cytosolic oxidoreductase which catalyzes the two-electron reduction of quinones using NADH or NADPH as electron donors (see, e.g., Phillips et al, Biochemical Pharmacology 68: 2107-2116 (2004); herein incorporated by reference in its entirety). As the DTD-induced reduction of quinones is known to take place even under normoxic conditions, the enzyme is used as a positive control for testing the release of drugs from quinone-linked drugs. Synthesized SN-38 pro-drug complex was incubated with recombinant human DTD (Sigma) added into the cell growth medium in the presence of different concentration of the SN-38 pro-drug complex. The effect of the drug on cell growth was determined in two different human cell lines, the cervical carcinoma cell line KB, and the breast cancer cell line SKBR3.

The test system of series [3] is breast cancer cell line SKBR3. Briefly: Effect on cell growth with or without recombinant human DT-Diaphorase (DTD) in the growth medium, SKBR3 cells. The series is classed as cell-based.
Text: as §1, §2

The mark [4] stands for this setting: absence of DTD, up to 300 nM prodrug.

Converted amounts (≈) assume the structure as drawn. Like-named read-outs stand apart in the source and are kept apart here.

A word on the solubility: it is how much of the substance goes into solution per volume. For the compound `CCc1c2c(nc3ccc(O)cc13)-c1cc3c(c(=O)n1C2)COC(=O)[C@]3(O)CC` [SN38, 7-Ethyl-10-hydroxy-camptothecin, reference compound], the solubility in series [1] (water) was roughly 2 µg/mL (≈ 5.1 µM).
In the case of `CCc1c2c(nc3ccc(OC(=O)N(C)CCN(C)C(=O)OCc4c5c(n(CC(=O)NCCOCCOCCOCCn6cc(CCC(=O)CCCC(=O)NCCCCC7NC(=O)[C@@H](Cc8ccc(O)cc8)NC(=O)[C@H](CC(=O)O)NC(=O)CNC(=O)[C@H](CCCNC(=N)N)NC7=O)nn6)c4C)C(=O)C=C(OC)C5=O)cc13)-c1cc3c(c(=O)n1C2)COC(=O)[C@]3(O)CC` (stereo partly shown) [SN-38 pro-drug complex], the solubility in series [1] (in water, read-out: solubility) came out at 100 µg/mL. Moreover, the “solubility compared with SN38” value in series [1] (ratio pro-drug complex / SN38) was “>= 50 times”. Moreover, the cytotoxicity entry in series [2] (setting [4]) and in series [3] (setting [4]) was “essentially non-cytotoxic” each time. In series [2] (redox mediated activation), the “cytotoxicity on redox mediated activation (FIG. 8)” value is “leads to KB cell cytotoxicity”. Further, the “cytotoxicity on redox-mediated activation (FIG. 9)” value in series [3] (redox-mediated activation) is given as “leads to SKBR3 cell cytotoxicity”.
